According to patent US20240122180A1, “FUNGICIDAL HALOMETHYL KETONES AND HYDRATES AND THEIR MIXTURES” (FMC Corporation, priority 2020, published 2024):

Assays:
Type in all cases: in vivo
[1] = test system: Phakopsora pachyrhizi (the causal agent of Asian soybean rust); assay: Test F: Compound 32 or 64 alone and in mixtures on soybean seedlings, observed (Obsd) and Colby expected (Exp) disease control; settings: for pest or weed control at 46.795 ppm: epoxiconazole 46.795 ppm alone; for pest or weed control at 89.631 ppm: epoxiconazole 89.631 ppm alone; for pest or weed control at 138.129 ppm: chlorothalonil 138.129 ppm alone; for pest or weed control at 222.081 ppm: chlorothalonil 222.081 ppm alone; for pest or weed control at 37.333 ppm: cyproconazole 37.333 ppm alone; for pest or weed control at 64.883 ppm: cyproconazole 64.883 ppm alone; for pest or weed control at 78.393 ppm: fenpropidin 78.393 ppm alone; for pest or weed control at 161.74 ppm: fenpropidin 161.740 ppm alone; for pest or weed control at 242.823 ppm: fenpropimorph 242.823 ppm alone; for pest or weed control at 458.587 ppm: fenpropimorph 458.587 ppm alone; for pest or weed control at 544.265 ppm: flutriafol 544.265 ppm alone; for pest or weed control at 1124.02 ppm: flutriafol 1124.021 ppm alone; for pest or weed control at 29.673 ppm: metominostrobin 29.673 ppm alone; for pest or weed control at 86.003 ppm: metominostrobin 86.003 ppm alone
Description: The general protocol for preparing test compositions for Test F was as follows: Compound 32, Compound 64, azoxystrobin, benzovindiflupyr, bixafen, chlorothalonil, cyproconazole, epoxiconazole, fenpropidin, fenpropimorph, fluindapyr, flutriafol, fluxapyroxad, metominostrobin, picoxystrobin, prothioconazole, pydiflumetofen, pyraclostrobin, tebuconazole and trifloxystrobin were obtained as unformulated, technical-grade materials. Copper hydroxide and mancozeb was obtained as a formulated product marketed under the trademarks KOCIDE 3000 and MANZATE, respectively. Unformulated materials were first dissolved in acetone and then suspended at the desired concentration (in ppm) in acetone and purified water (50/50 mix by volume) containing 250 ppm of the surfactant Trem® 014 (polyhydric alcohol esters). Formulated materials were dispersed in sufficient water to give the desired concentration, and neither organic solvent nor surfactant was added to the suspension. The resulting test mixtures were then used in Test F. The tests were run on four individual plants and the results reported as the mean average of the four plants.
The presence of a synergistic effect between two active ingredients was established with the aid of the Colby equation (see Colby, S. R. “Calculating Synergistic and Antagonistic Responses of Herbicide Combinations”, Weeds, (1967), 15, 20-22):
Using the method of Colby, the presence of a synergistic interaction between two active ingredients is established by first calculating the predicted activity, p, of the mixture based on activities of the two components applied alone. If p is lower than the experimentally established effect, synergism has occurred. In the equation above, A is the fungicidal activity in percentage control of one component applied alone at rate x. The B term is the fungicidal activity in percentage control of the second component applied at rate y. The equation estimates p, the expected fungicidal activity of the mixture of A at rate x with B at rate y if their effects are strictly additive and no interaction has occurred.
The test mixture was sprayed to the point of run-off on soybean seedlings. The following day the seedlings were inoculated with a spore suspension of Phakopsora pachyrhizi (the causal agent of Asian soybean rust) and incubated in a saturated atmosphere at 22° C. for 24 h and then moved to a growth chamber at 22° C. for 8 days, after which time visual disease ratings were made.
Results for Test F are given in Tables B-1 through I-1 for Compound 32 and Tables B-2 through I-2 for Compound 64. Each table corresponds to a set of evaluations performed together at the same time. In each table, a rating of 100 indicates 100% disease control and a rating of 0 indicates no disease control (relative to the controls). Columns labeled “Obsd” indicate the average of results observed from test run on four individual plants. Columns labeled “Exp” indicate the expected value for each treatment mixture using the Colby equation.

[2] = test system: Phakopsora pachyrhizi (the causal agent of Asian soybean rust); assay: Test A: preventive spray on soybean seedlings, visual disease rating (100 = 100% control; * 50 ppm, ** 10 ppm, *** 250 ppm); settings: 100 = 100% disease control, 0 = no control; for pest or weed control at 50 ppm / pest or weed control at 10 ppm: Phakopsora pachyrhizi
Procedure, shortened: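 Soybean seedlings sprayed to run-off with compound suspended in acetone/water with 250 ppm PEG400 surfactant, inoculated next day with P. pachyrhizi spores. Kept 24 h saturated at 22 °C, then 8 days at 22 °C before visual rating of disease control (0-100) relative to controls.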

[3] = test system: Puccinia recondita f. sp. tritici (the causal agent of wheat leaf rust); assay: Test B: preventive spray on wheat seedlings, disease rating (100 = 100% control; * 50 ppm, ** 10 ppm, *** 250 ppm); settings: 100 = 100% disease control, 0 = no control; for pest or weed control at 50 ppm / pest or weed control at 10 ppm: Puccinia recondita
Procedure, shortened: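 Wheat seedlings sprayed to run-off with compound in acetone/water (50/50) containing 250 ppm PEG400, inoculated next day with Puccinia recondita f. sp. tritici spores. Held 24 h saturated at 20° C, then 6 days at 20° C; disease control rated 0–100 relative to controls.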

[4] = Phakopsora pachyrhizi, Table F-1
[5] = Phakopsora pachyrhizi, Table F-2
[6] = Phakopsora pachyrhizi, Table G-1
[7] = Phakopsora pachyrhizi, Table G-2
[8] = Phakopsora pachyrhizi, Table E-2
[9] = Phakopsora pachyrhizi, Table I-1
[10] = Phakopsora pachyrhizi, Table I-2
[11] = Phakopsora pachyrhizi, Table D-1
[12] = Phakopsora pachyrhizi, Table D-2
[13] = Phakopsora pachyrhizi, Table H-1
[14] = Phakopsora pachyrhizi, Table H-2

## Cn1cc(C(=O)Nc2cccc3c2[C@@H]2CC[C@H]3C2=C(Cl)Cl)c(C(F)F)n1 (racemic) [benzovindiflupyr]
[1]; benzovindiflupyr 0.606 ppm alone, Table G-1
  Obsd disease control: 67%
[1]; benzovindiflupyr 0.606 ppm alone, Table G-2
  Obsd disease control: 67%
[1]; benzovindiflupyr 0.980 ppm alone, Table G-1
  Obsd disease control: 67%
[1]; benzovindiflupyr 0.980 ppm alone, Table G-2
  Obsd disease control: 67%

## Fc1ccc([C@]2(Cn3cncn3)O[C@H]2c2ccccc2Cl)cc1 (racemic) [epoxiconazole]
[1]; [4]
  pest or weed control at 46.795 ppm: 23%
  pest or weed control at 89.631 ppm: 70%
[1]; [5]
  pest or weed control at 46.795 ppm: 23%
  pest or weed control at 89.631 ppm: 70%

## CO/C=C(/C(=O)OC)c1ccccc1Oc1cc(Oc2ccccc2C#N)ncn1 [azoxystrobin]
[1]; azoxystrobin 95.873 ppm alone, Table E-1
  Obsd disease control: 70%
[1]; azoxystrobin 95.873 ppm alone, Table E-2
  Obsd disease control: 70%
[1]; azoxystrobin 169.226 ppm alone, Table E-1
  Obsd disease control: 88%
[1]; azoxystrobin 169.226 ppm alone, Table E-2
  Obsd disease control: 88%

## Cn1cc(C(=O)Nc2ccc(F)cc2-c2ccc(Cl)c(Cl)c2)c(C(F)F)n1 [bixafen]
[1]; bixafen 11.327 ppm alone, Table C-1
  Obsd disease control: 54%
[1]; bixafen 11.327 ppm alone, Table C-2
  Obsd disease control: 54%
[1]; bixafen 19.525 ppm alone, Table C-1
  Obsd disease control: 55%
[1]; bixafen 19.525 ppm alone, Table C-2
  Obsd disease control: 55%

## N#Cc1c(Cl)c(Cl)c(Cl)c(C#N)c1Cl [chlorothalonil]
[1]; [6]
  pest or weed control at 138.129 ppm: 59%
  pest or weed control at 222.081 ppm: 85%
[1]; [7]
  pest or weed control at 138.129 ppm: 59%
  pest or weed control at 222.081 ppm: 85%

## CCOC(=O)c1ccnn1Cc1ccc(F)c(O/C=C(\OCC)C(F)(F)F)c1 [compound 419]
[2]; 10 ppm test suspension
  Test A disease control rating: 0%
[3]; 10 ppm test suspension
  Test B disease control rating: 0%

## CCOC(=O)c1ccn(Cc2ccc(F)c(O/C=C(\OCC)C(F)(F)F)c2)n1 [compound 420]
[2]; 10 ppm test suspension
  Test A disease control rating: 0%
[3]; 10 ppm test suspension
  Test B disease control rating: 0%

## CCOC(=O)c1cnn(CCCc2cccc(O/C=C(\OCC)C(F)(F)F)c2)c1 [compound 421]
[2]; 10 ppm test suspension
  Test A disease control rating: 0%
[3]; 10 ppm test suspension
  Test B disease control rating: 0%

## CCOC(=O)c1cnn(Cc2ccc(O/C=C(\OS(=O)(=O)C(F)(F)F)C(F)(F)F)cc2)c1 [compound 422]
[2]; 50 ppm test suspension
  Test A disease control rating: 100%
[3]; 50 ppm test suspension
  Test B disease control rating: 84%

## OC(O)(COc1cccc(CCl)c1)C(F)(F)F [compound 423]
[2]; 50 ppm test suspension
  pest or weed control at 50 ppm: 87%
[3]; 50 ppm test suspension
  pest or weed control at 50 ppm: 80%

## CCOC(=O)c1cnn(COc2ccc(OCC(O)(O)C(F)(F)F)cc2F)c1 [compound 424]
[2]; 10 ppm test suspension
  pest or weed control at 10 ppm: 97%
[3]; 10 ppm test suspension
  pest or weed control at 10 ppm: 41%

## CCOC(=O)c1cnn(COc2ccc(O/C=C(\OCC)C(F)(F)F)cc2F)c1 [compound 425]
[2]; 10 ppm test suspension
  pest or weed control at 10 ppm: 100%
[3]; 10 ppm test suspension
  pest or weed control at 10 ppm: 0%

## CCOC(=COc1ccc(COC)cc1)C(F)(F)F [compound 433]
[2]; 50 ppm test suspension
  Test A disease control rating: 0%
[3]; 50 ppm test suspension
  Test B disease control rating: 0%

## CCOC(=COc1ccc(CCl)cc1)C(F)(F)F [compound 434]
[2]; 50 ppm test suspension
  Test A disease control rating: 0%
[3]; 50 ppm test suspension
  Test B disease control rating: 0%

## Cc1ccc(OCC2(C(F)(F)F)OCCO2)c(F)c1 [compound 442]
[2]; 50 ppm test suspension
  pest or weed control at 50 ppm: 0%
[3]; 50 ppm test suspension
  pest or weed control at 50 ppm: 0%

## CCOC(=O)c1cnn(Cc2ccc(NCC3(C(F)(F)F)OCCO3)cc2)c1 [compound 443]
[2]; 50 ppm test suspension
  Test A disease control rating: 48%
[3]; 50 ppm test suspension
  Test B disease control rating: 0%

## CCOC(=COc1ccc(CSC(C)=O)cc1)C(F)(F)F [compound 445]
[2]; 50 ppm test suspension
  Test A disease control rating: 38%
[3]; 50 ppm test suspension
  Test B disease control rating: 0%

## CCOC(=O)c1cn(Cc2cccc(O/C=C(\OCC)C(F)(F)F)c2)cn1 [compound 446]
[2]; 10 ppm test suspension
  pest or weed control at 10 ppm: 98%
[3]; 10 ppm test suspension
  pest or weed control at 10 ppm: 0%

## CCOC(=O)c1cncn1Cc1cccc(O/C=C(\OCC)C(F)(F)F)c1 [compound 447]
[2]; 10 ppm test suspension
  pest or weed control at 10 ppm: 0%
[3]; 10 ppm test suspension
  pest or weed control at 10 ppm: 0%

## CCOC(=O)c1cnn(Cc2cc(O/C=C(\OCC)C(F)(F)F)ccc2C)c1 [compound 451]
[2]; 50 ppm test suspension
  Test A disease control rating: 0%
[3]; 50 ppm test suspension
  Test B disease control rating: 0%

## CCOC(=O)c1ccnn1Cc1cc(C)cc(O/C=C(\OCC)C(F)(F)F)c1 [compound 462]
[2]; 10 ppm test suspension
  Test A disease control rating: 0%
[3]; 10 ppm test suspension
  Test B disease control rating: 0%

## CCOC(=O)c1ccnn1Cc1ccc(OC)c(O/C=C(\OCC)C(F)(F)F)c1 [compound 463]
[2]; 10 ppm test suspension
  Test A disease control rating: 0%
[3]; 10 ppm test suspension
  Test B disease control rating: 0%

## CC(C1CC1)C(O)(Cn1cncn1)c1ccc(Cl)cc1 (centres unmarked) [cyproconazole]
[1]; [8]
  pest or weed control at 37.333 ppm: 44%
  pest or weed control at 64.883 ppm: 68%
[1]; Table E-1
  pest or weed control at 37.333 ppm: 44%
  pest or weed control at 64.883 ppm: 68%

## CC(Cc1ccc(C(C)(C)C)cc1)CN1CCCCC1 (centres unmarked) [fenpropidin]
[1]; [9]
  pest or weed control at 78.393 ppm: 45%
  pest or weed control at 161.74 ppm: 68%
[1]; [10]
  pest or weed control at 78.393 ppm: 45%
  pest or weed control at 161.74 ppm: 68%

## CC(Cc1ccc(C(C)(C)C)cc1)CN1C[C@@H](C)O[C@@H](C)C1 (some centres unmarked) [fenpropimorph]
[1]; [11]
  pest or weed control at 242.823 ppm: 33%
  pest or weed control at 458.587 ppm: 44%
[1]; [12]
  pest or weed control at 242.823 ppm: 33%
  pest or weed control at 458.587 ppm: 44%

## CC1CC(C)(C)c2c(F)ccc(NC(=O)c3cn(C)nc3C(F)F)c21 (centres unmarked) [fluindapyr]
[1]; fluindapyr 8.820 ppm alone, Table C-1
  Obsd disease control: 61%
[1]; fluindapyr 8.820 ppm alone, Table C-2
  Obsd disease control: 61%
[1]; fluindapyr 15.230 ppm alone, Table C-1
  Obsd disease control: 79%
[1]; fluindapyr 15.230 ppm alone, Table C-2
  Obsd disease control: 79%

## OC(Cn1cncn1)(c1ccc(F)cc1)c1ccccc1F (centres unmarked) [flutriafol]
[1]; [9]
  pest or weed control at 544.265 ppm: 13%
  pest or weed control at 1124.02 ppm: 52%
[1]; [10]
  pest or weed control at 544.265 ppm: 13%
  pest or weed control at 1124.02 ppm: 52%

## Cn1cc(C(=O)Nc2ccccc2-c2cc(F)c(F)c(F)c2)c(C(F)F)n1 [fluxapyroxad]
[1]; fluxapyroxad 2.757 ppm alone, Table C-1
  Obsd disease control: 19%
[1]; fluxapyroxad 2.757 ppm alone, Table C-2
  Obsd disease control: 19%
[1]; fluxapyroxad 4.748 ppm alone, Table C-1
  Obsd disease control: 52%
[1]; fluxapyroxad 4.748 ppm alone, Table C-2
  Obsd disease control: 52%

## CNC(=O)/C(=N/OC)c1ccccc1Oc1ccccc1 [metominostrobin]
[1]; [13]
  pest or weed control at 29.673 ppm: 13%
  pest or weed control at 86.003 ppm: 37%
[1]; [14]
  pest or weed control at 29.673 ppm: 13%
  pest or weed control at 86.003 ppm: 37%

## CO/C=C(/C(=O)OC)c1ccccc1COc1cccc(C(F)(F)F)n1 [picoxystrobin]
[1]; picoxystrobin 20.596 ppm alone, Table B-1
  Obsd disease control: 73%
[1]; picoxystrobin 20.596 ppm alone, Table B-2
  Obsd disease control: 73%
[1]; picoxystrobin 33.865 ppm alone, Table B-1
  Obsd disease control: 75%
[1]; picoxystrobin 33.865 ppm alone, Table B-2
  Obsd disease control: 75%
